Data set [1] has as its system E. coli Juhl. In words: MIC, serial two-fold agar dilution, Mueller-Hinton agar. In kind it is cell-based. The settings on record: Escherichia coli. On the procedure:
(§1) Minimum inhibitory concentrations (MIC) of BB-P 652, BB-P 660 and BB-P 661 were determined by serial two-fold agar dilution method using Steer's apparatus on Mueller-Hinton agar plates against S. aureus (6 strains), cephalothinsensitive gram-negative (Gn-I, 13 strains), cephalothinresistant gram-negative (Gn-II, 6 strains) and Ps. aeruginosa (64 strains). The results are shown in Tables 1 and 2 along with piperacillin and carbenicillin.
On the technique in general: Agar dilution tests growth on a series of plates holding different concentrations.

The next data set has as its system P. mirabilis A9900. The description is as above. The settings on record: Proteus mirabilis. It is filed as cell-based. The procedure: as §1
A further data set concerns P. aeruginosa A9843. The data set is described as above. In kind it is cell-based. The settings on record: Pseudomonas aeruginosa. On the procedure:
as §1

The test system of data set [2] is S. aureus Smith. Described as above. In kind it is cell-based. The settings on record: Staphylococcus aureus. On the procedure: as §1
The next data set deals with S. aureus BX-1633. The description is as above. In kind it is cell-based. Particulars: Staphylococcus aureus, BX1633. On the procedure: as §1
In another data set the test system is K. pneumoniae A9977. Described as above. In kind it is cell-based. The settings on record: Klebsiella pneumoniae. The procedure:
as §1

A further data set relates to E. cloacae A9656. The data set is described as above. It is filed as cell-based. The settings on record: Enterobacter cloacae. The procedure: as §1
For another data set, the system named is P. vulgaris A9539. The data set is described as above. The settings on record: Proteus vulgaris. In kind it is cell-based. The procedure: as §1
In another data set the test system is P. aeruginosa A15150. Described as above. The settings on record: Pseudomonas aeruginosa. In kind it is cell-based. The procedure: as §1
For the next data set, the system named is P. aeruginosa. Put plainly: MIC, serial two-fold agar dilution, Mueller-Hinton agar (third P. aeruginosa line, strain not given). Particulars: Pseudomonas aeruginosa. It is filed as cell-based. On the procedure:
as §1

Data set [3] in a line: Blood Level (im, 20mg/kg). It is filed as in vivo. Particulars: for half-life / Cmax: blood; for Cmax: read-out: Blood Level peak conc.
In data set [4] the test system is Gram-negative (Gn-I), cephalothin-sensitive, 13 strains. In words: Mean % relative activity to carbenicillin from geometric mean MIC. In kind it is cell-based. Particulars: for Mean % relative activity (carbenicillin = 100%): Gram-negative (Gn-I), 13 strains, from geometric mean of MIC. The procedure:
as §1

The next data set has as its system S. aureus (6 strains). The description is as above. It is filed as cell-based. Particulars: from geometric mean of MIC. On the procedure: as §1
In data set [5] the test system is Gram-negative (Gn-II), cephalothin-resistant, 6 strains. The data set is described as above. In kind it is cell-based. Particulars: for Mean % relative activity (carbenicillin = 100%): Gram-negative (Gn-II), 6 strains, from geometric mean of MIC. The procedure:
as §1

The subject of data set [6] is Ps. aeruginosa (64 strains). The data set is described as above. It is filed as cell-based. Particulars: for Mean % relative activity (carbenicillin = 100%): Ps. aeruginosa, 64 strains, from geometric mean of MIC. On the procedure: as §1
In data set [7] the test system is E. coli Juhl. Put plainly: PD50 (mice, im). It is filed as in vivo. Particulars: Escherichia coli.
A further data set deals with gram-positive bacteria. In words: In vitro activity against gram-positive bacteria (summary of MIC). In kind it is cell-based. The settings on record: in words. On the procedure:
as §1

Data set [8] has as its system S. aureus Smith. In words: PD50 (mice, im). It is filed as in vivo. Particulars: Staphylococcus aureus.
In another data set the test system is Ps. aerug. A9843. In words: PD50 (mice, im). It is filed as in vivo. Particulars: for ED50: Mus musculus.
For a further data set, the system named is Pseudomonas. Put plainly: Antipseudomonal activity of HPLC fractions. In kind it is cell-based. The settings on record: fractions of preparative HPLC of crude BB-P661. From the text: The result is shown below:
The next data set deals with gram-negative bacteria. Put plainly: In vitro gram-negative activity of the isomers (summary of MIC). Particulars: in words. It is filed as cell-based. The procedure: as §1
[9] abbreviates: E. coli Juhl, agar dilution, Mueller-Hinton agar, read-out: MIC.
Setting [10] is: P. aeruginosa A9843, agar dilution, Mueller-Hinton agar, read-out: MIC.

Values after ≈ are worked out from the molar mass of the structure shown. Values joined by “and” are separate entries in the source; they are usually repeats but may differ in a detail not shown here. Identical values can stand only once. Like-named read-outs stand apart in the source and are kept apart here. Some results are limits rather than exact numbers.

In the case of `CC1(C)S[C@@H]2[C@H](NC(=O)C(C(=O)O)c3ccccc3)C(=O)N2[C@H]1C(=O)O` (some centres unmarked) [carbenicillin, reference compound], the MIC (commonly the lowest concentration found to suppress growth) amounted to 3.1 µg/mL (≈ 8.19 µM) with E. coli Juhl [1] (setting [9]); 0.8 µg/mL (≈ 2.11 µM) against P. mirabilis A9900; 100 µg/mL (≈ 264 µM) in the data set on P. aeruginosa A9843 (setting [10]); 0.2 µg/mL (≈ 0.529 µM) against S. aureus Smith [2]; 3.1 µg/mL (≈ 8.19 µM) against S. aureus BX-1633; 1.6 µg/mL (≈ 4.23 µM) in the data set with K. pneumoniae A9977. The MIC is 1.6 µg/mL (≈ 4.23 µM) in the data set on E. cloacae A9656, 1.6 µg/mL (≈ 4.23 µM) with P. vulgaris A9539, 25 µg/mL (≈ 66.1 µM) in the data set with P. aeruginosa A15150 and over 100 µg/mL against P. aeruginosa.
As for `CCN1CCN(C(=O)N[C@@H](C(=O)N[C@@H]2C(=O)N3[C@@H]2SC(C)(C)[C@@H]3C(=O)O)c2ccc(O)c(O)c2)C(=O)C1=O` [BB-P 661, Sodium 6-[D-α-(4-ethyl-2,3-dioxo-1-piperazinocarboxamido)-α-(3,4-dihydroxyphenyl)acetamido]penicillinate], the half-life – broadly, how long it takes for the measured level to halve – in data set [3] (im, 20 mg/kg) was 28 min. The Cmax in data set [3] (im, 20 mg/kg, im) is 4000 ng/mL. The “Mean % relative activity (carbenicillin = 100%)” value (“Mean % relative activity” below) was determined as 3030% in data set [4], 22% in the data set on S. aureus (6 strains), 178% in [5] and 418% in data set [6]. The “times more active than piperacillin against cephalothin-sensitive gram-negative organisms” value in [4] (versus piperacillin) is reported as “about 8 times”. For the same compound, the “activity compared with piperacillin against cephalothin-resistant strains” value in [5] (in words) is listed as “slightly less active”. The “activity compared with piperacillin against Pseudomonas” value in data set [6] (in words) was “slightly less active”. Further, the figures for the ED50 with E. coli Juhl [7], in the data set with S. aureus Smith [8] and with Ps. aerug. A9843 were 1.8 mg/kg, 6.25 mg/kg and 25 mg/kg, respectively. Further, in the data set on gram-positive bacteria, the “activity against gram-positive bacteria, compared with each other” value (from here on “activity … compared with each other”) is “almost as active as each other”. The “potency against gram-positive bacteria, compared with piperacillin” value (“potency … compared with piperacillin” below) in the data set on gram-positive bacteria is “less potent than piperacillin”. Also, the MIC with E. coli Juhl [1] (setting [9]) amounted to 0.4 µg/mL; against P. mirabilis A9900, 0.4 µg/mL; with P. aeruginosa A9843 (setting [10]), 0.8 µg/mL; against S. aureus Smith [2], 6.3 µg/mL; in the data set on S. aureus BX-1633 it was 12.5 µg/mL; in the data set with K. pneumoniae A9977, 0.025 µg/mL. The MIC against E. cloacae A9656 amounted to 1.6 µg/mL; against P. vulgaris A9539, 0.4 µg/mL; with P. aeruginosa A15150, 12.5 µg/mL; against P. aeruginosa it was 0.8 µg/mL. Further, in the data set with Pseudomonas, the antipseudomonal activity entry is “exhibited antipseudomonal activity”. The “gram-negative activity, compared among the three isomers” value in the data set on gram-negative bacteria was “the most active of the three isomers”.
As for `CCN1CCN(C(=O)N[C@H](C(=O)N[C@@H]2C(=O)N3[C@@H]2SC(C)(C)[C@@H]3C(=O)O)c2ccc(O)c(O)c2)C(=O)C1=O` [BB-P 660, Sodium 6-[L-α-(4-ethyl-2,3-dioxo-1-piperazinocarboxamido)-α-3,4-dihydroxyphenylacetamido]penicillanate], in [3] (im, 20 mg/kg), the half-life stood at 39 min. Moreover, in data set [3] (im, 20 mg/kg, im), the Cmax stood at 4000 ng/mL. The “Mean % relative activity” value in [4] stood at 200%; in the data set on S. aureus (6 strains) it was 22%; in data set [5], 6%; in data set [6], 26%. The ED50 (usually the midpoint of the dose-response relation) in the data set with E. coli Juhl [7] was 7.2 mg/kg; with S. aureus Smith [8], 7.3 mg/kg; in the data set on Ps. aerug. A9843, over 100 mg/kg. Besides, in the data set on gram-positive bacteria, the “activity … compared with each other” value was “almost as active as each other”. Further, the “potency … compared with piperacillin” value with gram-positive bacteria is on record as “less potent than piperacillin”. Also, the MIC in the data set with E. coli Juhl [1] (setting [9]) is 6.3 µg/mL; in the data set on P. mirabilis A9900, 12.5 µg/mL; in the data set with P. aeruginosa A9843 (setting [10]), over 100 µg/mL; in the data set on S. aureus Smith [2], 6.3 µg/mL; in the data set on S. aureus BX-1633, 12.5 µg/mL; in the data set on K. pneumoniae A9977, 0.8 µg/mL. The MIC was 12.5 µg/mL in the data set on E. cloacae A9656, over 100 µg/mL in the data set on P. vulgaris A9539, over 100 µg/mL in the data set on P. aeruginosa A15150 and over 100 µg/mL against P. aeruginosa. In addition, in the data set on gram-negative bacteria, the “gram-negative activity, compared among the three isomers” value is “considerably decreased activity”.
In data set [3] (im, 20 mg/kg), `CCN1CCN(C(=O)NC(C(=O)N[C@@H]2C(=O)N3[C@@H]2SC(C)(C)[C@@H]3C(=O)O)c2ccc(O)c(O)c2)C(=O)C1=O` (mixture of isomers) [BB-P 652, Sodium 6-[DL-α-(4-ethyl-2,3-dioxo-1-piperazinocarboxamido)-α-3,4-dihydroxyphenylacetamido]penicillanate] registered a half-life of 32 min. The Cmax in data set [3] (im, 20 mg/kg, im) is 8300 ng/mL. Moreover, in data set [3] (im, 20 mg/kg), the “Blood Level half life” value was 39 min. For the same compound, the “Blood Level peak conc.” value in data set [3] (im, 20 mg/kg) turned out to be 4500 ng/mL. Besides, the “Mean % relative activity” value in data set [4] stood at 1780%; in the data set with S. aureus (6 strains) it was 25%; in data set [5] it was 112%; in [6], 271%. The median effective dose (ED50) in the data set on E. coli Juhl [7] amounted to 1.8 mg/kg; in the data set with S. aureus Smith [8], 4.5 mg/kg; with Ps. aerug. A9843, 30 mg/kg. Also, the “activity … compared with each other” value with gram-positive bacteria is on record as “almost as active as each other”. Also, the “potency … compared with piperacillin” value with gram-positive bacteria was “less potent than piperacillin”. In addition, the MIC in the data set on E. coli Juhl [1] (setting [9]) is 0.8 µg/mL; against P. mirabilis A9900 it was 0.8 µg/mL; against P. aeruginosa A9843 (A9843) it was 3.1 µg/mL; against S. aureus Smith [2], 6.3 µg/mL; with S. aureus BX-1633, 12.5 µg/mL; against K. pneumoniae A9977, 0.05 µg/mL. Also, the MIC was 1.6 µg/mL in the data set on E. cloacae A9656, 0.8 µg/mL against P. vulgaris A9539, 50 µg/mL in the data set with P. aeruginosa A15150 and 6.3 µg/mL against P. aeruginosa.
With `CCN1CCN(C(=O)N[C@@H](C(=O)N[C@@H]2C(=O)N3[C@@H]2SC(C)(C)[C@@H]3C(=O)O)c2ccccc2)C(=O)C1=O` [piperacillin, reference compound], the half-life was determined as 29 min in data set [3] (im, 20 mg/kg) and 44 min in data set [3] (sc, 20 mg/kg, route: sc (footnote 2)). The Cmax in data set [3] (im, 20 mg/kg, im) is 4900 ng/mL. The “Blood Level peak conc.” value in data set [3] (im, listed as B-P 606, 20 mg/kg) was 6200 ng/mL and 9000 ng/mL. Moreover, the “Blood Level half life” value in data set [3] (route: sc (footnote 2), listed as B-P 606, 20 mg/kg) is 30 min. For the same compound, the “Mean % relative activity” value was 360% in [4], 56% in the data set on S. aureus (6 strains), 224% in [5] and 637% in [6]. The results for the ED50 in the data set with E. coli Juhl [7], in the data set with S. aureus Smith [8] and in the data set on Ps. aerug. A9843 were 3.3 mg/kg, 0.8 mg/kg and 45 mg/kg, respectively. Also, the MIC against E. coli Juhl [1] amounted to 1.6 µg/mL (≈ 3.09 µM); against P. mirabilis A9900 it was 0.8 µg/mL (≈ 1.55 µM); in the data set with P. aeruginosa A9843 (setting [10]), 6.3 µg/mL (≈ 12.2 µM); against S. aureus Smith [2], 0.8 µg/mL (≈ 1.55 µM); in the data set on S. aureus BX-1633 it was 3.1 µg/mL (≈ 5.99 µM); with K. pneumoniae A9977 it was 0.8 µg/mL (≈ 1.55 µM). Besides, the minimum inhibitory concentration (MIC) in the data set on E. cloacae A9656 worked out at 1.6 µg/mL (≈ 3.09 µM); against P. vulgaris A9539 it was 0.4 µg/mL (≈ 0.773 µM); in the data set with P. aeruginosa A15150, 3.1 µg/mL (≈ 5.99 µM); in the data set on P. aeruginosa, 25 µg/mL (≈ 48.3 µM). In addition, the PD50 with Ps. aerug. A9843 (listed as B-P 606) was 35 mg/kg and 25 mg/kg and 40 mg/kg.

Source of the values: US4206116A, “Novel penicillins” (Bristol-Myers Company, priority 1978, dated 1980).
